From ChEMBL document CHEMBL3638739, “Medical composition for treatment or prophylaxis of glaucoma” (2014)
pKi: −log10 of the molar value.

Molecular target: Prostaglandin E2 receptor EP2 subtype (Homo sapiens, UniProt P43116)
Experiment: Binding Assay: Measurement of EP2 receptor binding affinity was carried out according to the method of Abramovitz et al. (Biochimica et Biophysica Acta, 1483, 285 (2000)). […] The membrane fraction was recovered on glass fiber filter paper (GF/B, available from Whatman PLC) using a cell harvester (M30R, available from Brandel Inc.), and after washing with a buffer solution (10 mM MES-KOH (pH 6.0), 10 mM MgCl2), radioactivity was measured with a liquid scintillation analyzer (2000CA, available from Packard).
Format: cell membranes
Details: hek293

Prostaglandin E2 receptor EP2 subtype, sequence (P43116 whole entry): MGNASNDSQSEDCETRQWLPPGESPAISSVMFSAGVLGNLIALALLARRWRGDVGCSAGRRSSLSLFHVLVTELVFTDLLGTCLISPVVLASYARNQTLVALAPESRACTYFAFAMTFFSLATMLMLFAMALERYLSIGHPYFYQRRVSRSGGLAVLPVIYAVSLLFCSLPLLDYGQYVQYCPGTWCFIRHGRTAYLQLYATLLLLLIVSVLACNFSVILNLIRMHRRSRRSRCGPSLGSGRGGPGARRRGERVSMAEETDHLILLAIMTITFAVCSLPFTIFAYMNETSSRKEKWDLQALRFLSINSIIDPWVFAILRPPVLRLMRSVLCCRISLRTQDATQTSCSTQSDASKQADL

| pKi | Structure (SMILES) |
| --- | --- |
| 8.51 | COc1ccc(-c2cc(-c3ccccc3)[nH]c2C(=O)Nc2ccc(C(=O)NO)o2)cc1 |
| 8.03 | O=C(NO)c1ccc(CNC(=O)c2[nH]c(-c3ccc(O)cc3)cc2-c2ccoc2)cc1 |
| 8.96 | O=C(NO)c1ccc(CNC(=O)c2[nH]c(-c3ccoc3)cc2-c2ccc(F)cc2)cc1 |
| 7.89 | O=C(NO)c1ccc(CNC(=O)c2[nH]c(-c3cccs3)cc2-c2ccc(O)cc2)cc1 |
| 8.55 | O=C(O)c1[nH]c(-c2ccoc2)cc1-c1ccc(O)cc1 |

| Structure (SMILES) | pKi |
| --- | --- |
| COC(=O)c1ccc(CNC(=O)c2[nH]c(-c3cccs3)cc2-c2ccc(F)cc2)nc1 | 8.42 |
| O=C(NO)c1ccc(CNC(=O)c2[nH]c(-c3ccccc3)cc2-c2ccc(F)cc2)o1 | 8.82 |
